Results as given in US20210267923A1, “SUCCINIC ACID AND DERIVATIVES FOR THE TREATMENT OF HAEMOTOLOGICAL DISORDERS” (ENZENE BIOSCIENCES LIMITED, priority 2018, published 2021).

Columns and labels:
TF-1 cells [1] = experiment: In-vitro bioassay in TF1 cell lines (proliferation, alamar Blue); details: treated 48 h without rhGMCSF, normalized to cell control
TF-1 cells [2] = details: normalised to untreated cells (CC), triplicates
Method: For RNA-seq analysis, TF-1 cells were either treated with the positive control GMCSF (GM) or with succinate (E01). Untreated TF-1 cells (CC) were used as a control to determine basal gene expression. RNA-seq was performed in triplicates from all the three groups. The gene expression from E01 or GM group was normalised to the expression of CC.

WI38 cells = details: WI38 fibroblasts, mitogen-deprived medium (0.1% FBS), 48 h in presence of succinate
platelet counts = details: rats, 100 mg/kg twice daily P.O. for 7 days, versus water control
Method: A preliminary study was conducted in rats using pure succinic acid (from commercial source). Six animals were used in each group (control and treated). The treated group received a dose of 100 mg/kg succinic acid twice daily P.O. whereas the control group received water of same volume as in treated twice daily. CBC (Complete Blood counts) was performed from the blood withdrawn from individual rats.

O=C([O-])CCC(=O)[O-].[Ca+2] [Ca salt of succinic acid]
cellular proliferation in TF-1 cells (TF-1 cells [1]): showed proliferation activity

O=C([O-])CCC(=O)[O-].[Mg+2] [Mg salt of succinic acid]
cellular proliferation in TF-1 cells (TF-1 cells [1]): showed proliferation activity

O=C([O-])CCC(=O)[O-].[Na+].[Na+] [Sodium Succinate]
cellular proliferation in TF-1 cells (TF-1 cells [1]; listed as Na salt of succinic acid): showed proliferation activity

O=C(O)CCC(=O)O [succinate]
gene expression changes (RNA-seq) (TF-1 cells [2]): Several genes related to platelet differentiation pathway in succinate treated cells were identified
cell cycle entry from quiescence (WI38 cells): entered in the cell cycle even in the absence of mitogens

O=C(O)CCC(=O)O [succinic acid, Succinic acid]
platelet counts (platelet counts): substantially increase the platelet counts
cellular proliferation in TF-1 cells (TF-1 cells [1]): dose dependent proliferation was observed
